The target of test [1] is T1, adrenergic α2C receptor (Homo sapiens, UniProt P18825).
T1 sequence (P18825 1-462): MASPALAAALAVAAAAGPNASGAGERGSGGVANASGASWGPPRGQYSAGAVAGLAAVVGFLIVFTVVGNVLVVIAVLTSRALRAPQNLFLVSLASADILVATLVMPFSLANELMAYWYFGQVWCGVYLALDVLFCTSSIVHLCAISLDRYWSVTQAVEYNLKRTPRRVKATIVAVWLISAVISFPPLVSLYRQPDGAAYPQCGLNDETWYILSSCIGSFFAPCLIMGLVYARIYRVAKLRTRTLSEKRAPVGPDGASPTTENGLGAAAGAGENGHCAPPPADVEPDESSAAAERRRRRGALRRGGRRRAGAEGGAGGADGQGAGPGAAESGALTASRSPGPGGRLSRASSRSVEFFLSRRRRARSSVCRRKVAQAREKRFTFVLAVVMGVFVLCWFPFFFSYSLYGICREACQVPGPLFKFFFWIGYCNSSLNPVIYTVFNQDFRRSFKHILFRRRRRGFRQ
In words: Cellular functional assay, adrenergic α2C receptor (agonism/antagonism). The format is cell-based. To be noted: for activation at 1 µM: agonist effect, percent of control specific agonist response, compounds tested at 1×10^−6M, read-out: α2C −ag [%]; for inhibition at 1 µM: read-out: α2C −antag. [%]. How it is done: (§1) The compounds were tested at the concentration of 1×10^−6M.
(§2) In the Tables ag refers to agonism, and antag to antagonism).

The target of a further test is T2, muscarinic M3 receptor (Homo sapiens, UniProt P20309).
T2 construct: expressed in transfected cells; host or cells: CHO cells
In words: Binding assay M3 (h), [3H]4-DAMP, CHO cells. To be noted: read-out: M3 [%]. The gist of the method: (§3)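 Radioligand displacement with compounds at 1×10^−6 M, detected by scintillation counting. Specific binding taken as total minus non-specific binding measured with excess unlabelled ligand.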

Test [2] deals with serotoninergic 5-HT7 receptor (Homo sapiens, UniProt P34969). In words: Cellular functional assay, serotoninergic 5-HT7 receptor (agonism/antagonism). The test is classed as cell-based. To be noted: for activation at 1 µM: read-out: 5-HT7-ag [%]; for inhibition at 1 µM: read-out: 5-HT7-antag. [%]. On the procedure: as §1, §2
Another test deals with T3, adrenergic α1A receptor (Homo sapiens, UniProt P35348).
T3 sequence (P35348 1-466): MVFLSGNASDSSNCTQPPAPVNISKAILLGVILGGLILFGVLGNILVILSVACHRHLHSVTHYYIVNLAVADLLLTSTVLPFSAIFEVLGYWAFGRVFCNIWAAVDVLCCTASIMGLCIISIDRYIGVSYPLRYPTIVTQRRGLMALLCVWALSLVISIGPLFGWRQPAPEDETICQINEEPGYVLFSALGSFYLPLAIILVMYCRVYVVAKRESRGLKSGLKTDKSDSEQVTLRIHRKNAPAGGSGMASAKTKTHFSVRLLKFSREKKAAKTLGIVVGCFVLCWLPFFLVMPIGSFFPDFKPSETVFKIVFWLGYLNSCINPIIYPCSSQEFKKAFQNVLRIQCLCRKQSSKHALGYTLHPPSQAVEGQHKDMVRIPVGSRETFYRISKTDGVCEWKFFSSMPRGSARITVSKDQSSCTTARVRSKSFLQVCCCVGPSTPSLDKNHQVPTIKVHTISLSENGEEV
The test is described as follows: Cellular functional assay, adrenergic α1A receptor (agonism/antagonism). The test is classed as cell-based. To be noted: for activation at 1 µM: agonist effect, percent of control specific agonist response, compounds tested at 1×10^−6M, read-out: α1A -ag [%]; for inhibition at 1 µM: read-out: α1A -antag. [%]. On the procedure:
[…]. The compounds were tested at the concentration of 1×10^−6M.
Conditions and methodology (by reference to the literature) of cellular functional assays are given in Table 13 and the tests results for representative compounds are given in Table 14 (dopaminergic receptor D2), in Table 15 (dopaminergic receptor D3), in Table 16 (serotoninergic receptor 5-HT1A), in Table 17 (serotoninergic receptor 5-HT2A), in Table 18 (serotoninergic receptor 5-HT6), in Table 19 (serotoninergic receptor 5-HT7), in Table 20 (adrenergic α1 receptor), in Table 21 (adrenergic α2C receptor), in Table 22 (histaminergic H1 receptor) and in Table 23 (serotoninergic 5-HT2C receptor). In the Tables ag refers to agonism, and antag to antagonism).

Test [3] concerns the target serotoninergic 5-HT2A receptor (Homo sapiens, UniProt P28223). The test is described as follows: Binding assay 5-HT2A (h), [3H]ketanserin, HEK-293 cells. Set-up: expressed in transfected cells; host or cells: HEK-293 cells. To be noted: read-out: 5-HT2A. The gist of the method:
as §3

In test [4] the target is T1, adrenergic α2C receptor. In words: Binding assay α2C (h), [3H]RX 821002, CHO cells. Set-up: expressed in transfected cells; host or cells: CHO cells. To be noted: read-out: α2C [%]. The gist of the method:
as §3

In test [5] the target is T4, dopaminergic D2 receptor (Homo sapiens, UniProt P14416). The test is described as follows: Binding assay D2S (h), [3H]methyl-spiperone, HEK-293 cells. To be noted: read-out: D2 [%]. Also on record: expressed in transfected cells; host or cells: HEK-293 cells. The gist of the method:
as §3
Target sequence in this assay (P14416 1-414 isoform P14416-2): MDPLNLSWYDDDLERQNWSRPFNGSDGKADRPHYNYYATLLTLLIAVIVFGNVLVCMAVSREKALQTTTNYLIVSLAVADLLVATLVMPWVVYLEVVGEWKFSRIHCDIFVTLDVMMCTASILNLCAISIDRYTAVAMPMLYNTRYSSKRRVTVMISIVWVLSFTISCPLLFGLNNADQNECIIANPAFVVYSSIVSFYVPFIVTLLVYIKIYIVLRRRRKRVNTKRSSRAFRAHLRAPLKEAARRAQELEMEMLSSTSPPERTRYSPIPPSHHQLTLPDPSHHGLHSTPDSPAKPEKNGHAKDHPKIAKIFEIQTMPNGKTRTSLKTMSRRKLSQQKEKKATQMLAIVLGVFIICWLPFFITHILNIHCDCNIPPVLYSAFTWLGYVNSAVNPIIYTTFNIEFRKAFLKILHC

Test [6] has as its target T5, serotonine transporter (SERT) receptor (Homo sapiens, UniProt P31645).
T5 construct: expressed in transfected cells; host or cells: CHO cells
In words: Binding assay SERT (h), [3H]imipramine, CHO cells. To be noted: read-out: SERT [%]. The gist of the method:
as §3

A further test concerns the target dopaminergic D3 receptor (Homo sapiens, UniProt P35462). In words: Cellular functional assay, dopaminergic D3 receptor (agonism/antagonism). To be noted: for inhibition at 1 µM: CHO, read-out: D3-antag. [%]; for activation at 1 µM: agonist effect, percent of control specific agonist response (300 nM dopamine for control), 1×10^−6 M, D3 (h), CHO cells, read-out: D3-ag [%]. The format is cell-based. How it is done: as §1, §2

In test [7] the target is T4, dopaminergic D2 receptor. In words: Cellular functional assay, dopaminergic D2 receptor (agonism/antagonism). The format is cell-based. To be noted: HEK293; for activation at 1 µM: agonist effect, percent of control specific agonist response (3 μM dopamine for control), 1×10^−6 M, D2S (h), HEK-293 cells, read-out: D2-ag [%]; for inhibition at 1 µM: read-out: D2-antag. [%]. How it is done: as §1, §2
Target sequence in this assay (P14416 whole entry): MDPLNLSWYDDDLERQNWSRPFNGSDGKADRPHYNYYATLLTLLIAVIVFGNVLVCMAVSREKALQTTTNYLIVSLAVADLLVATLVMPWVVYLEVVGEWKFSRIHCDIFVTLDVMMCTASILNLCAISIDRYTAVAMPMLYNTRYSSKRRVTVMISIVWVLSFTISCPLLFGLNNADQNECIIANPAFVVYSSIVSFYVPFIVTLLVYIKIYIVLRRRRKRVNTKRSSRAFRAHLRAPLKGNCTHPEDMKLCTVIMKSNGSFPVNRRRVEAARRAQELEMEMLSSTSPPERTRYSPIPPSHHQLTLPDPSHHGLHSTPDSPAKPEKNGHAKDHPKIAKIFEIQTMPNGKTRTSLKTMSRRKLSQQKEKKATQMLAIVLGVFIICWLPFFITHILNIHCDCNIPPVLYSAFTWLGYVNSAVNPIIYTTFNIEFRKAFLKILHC

In test [8] the target is serotoninergic 5-HT6 receptor (Homo sapiens, UniProt P50406). In words: Cellular functional assay, serotoninergic 5-HT6 receptor (agonism/antagonism). The test is classed as cell-based. To be noted: for inhibition at 1 µM: read-out: 5-HT6-antag. [%]. On the procedure: as §1, §2
[9] abbreviates: agonist effect, percent of control specific agonist response, compounds tested at 1×10^−6M.

Among the data in patent publication US8822517B2, “Arylosulfonamides for the treatment of CNS diseases” (Adamed SP. Z O.O., priority 2010, dated 2014) are activation and inhibition values, retold here.

SMILES strings stand for the structures. Where two headings read alike, the source gives them in different places.

T5 sequence (P31645 whole entry): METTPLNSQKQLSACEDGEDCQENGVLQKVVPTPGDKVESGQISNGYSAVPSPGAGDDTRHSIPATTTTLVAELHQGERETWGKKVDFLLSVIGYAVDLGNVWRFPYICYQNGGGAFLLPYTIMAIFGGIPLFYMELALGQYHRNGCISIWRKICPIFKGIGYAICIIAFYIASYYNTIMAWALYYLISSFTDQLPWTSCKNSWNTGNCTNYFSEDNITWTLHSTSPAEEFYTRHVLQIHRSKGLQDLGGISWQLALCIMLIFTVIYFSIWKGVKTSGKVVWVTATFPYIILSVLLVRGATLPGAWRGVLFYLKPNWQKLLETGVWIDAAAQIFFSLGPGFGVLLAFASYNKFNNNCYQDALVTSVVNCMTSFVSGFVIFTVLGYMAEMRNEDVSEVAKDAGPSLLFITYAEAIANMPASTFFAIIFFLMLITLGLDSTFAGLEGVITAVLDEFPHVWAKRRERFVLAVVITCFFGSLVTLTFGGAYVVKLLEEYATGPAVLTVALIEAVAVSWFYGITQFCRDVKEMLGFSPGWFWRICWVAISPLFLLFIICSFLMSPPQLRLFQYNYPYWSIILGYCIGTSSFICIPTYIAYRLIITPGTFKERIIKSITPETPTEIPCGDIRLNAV
Chain of serotoninergic 5-HT2A receptor (P28223 whole entry): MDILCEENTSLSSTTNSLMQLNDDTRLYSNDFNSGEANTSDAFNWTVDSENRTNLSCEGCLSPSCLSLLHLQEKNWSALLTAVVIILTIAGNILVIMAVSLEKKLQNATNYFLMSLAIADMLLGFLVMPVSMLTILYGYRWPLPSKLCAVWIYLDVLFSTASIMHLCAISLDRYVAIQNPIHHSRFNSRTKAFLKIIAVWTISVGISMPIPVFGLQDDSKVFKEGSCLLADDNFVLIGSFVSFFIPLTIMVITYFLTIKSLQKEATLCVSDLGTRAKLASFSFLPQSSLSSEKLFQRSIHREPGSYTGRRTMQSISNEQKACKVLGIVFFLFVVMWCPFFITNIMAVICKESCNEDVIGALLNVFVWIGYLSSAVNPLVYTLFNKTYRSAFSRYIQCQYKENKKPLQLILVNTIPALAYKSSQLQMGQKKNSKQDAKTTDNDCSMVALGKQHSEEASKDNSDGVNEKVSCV
T2 sequence (P20309 whole entry): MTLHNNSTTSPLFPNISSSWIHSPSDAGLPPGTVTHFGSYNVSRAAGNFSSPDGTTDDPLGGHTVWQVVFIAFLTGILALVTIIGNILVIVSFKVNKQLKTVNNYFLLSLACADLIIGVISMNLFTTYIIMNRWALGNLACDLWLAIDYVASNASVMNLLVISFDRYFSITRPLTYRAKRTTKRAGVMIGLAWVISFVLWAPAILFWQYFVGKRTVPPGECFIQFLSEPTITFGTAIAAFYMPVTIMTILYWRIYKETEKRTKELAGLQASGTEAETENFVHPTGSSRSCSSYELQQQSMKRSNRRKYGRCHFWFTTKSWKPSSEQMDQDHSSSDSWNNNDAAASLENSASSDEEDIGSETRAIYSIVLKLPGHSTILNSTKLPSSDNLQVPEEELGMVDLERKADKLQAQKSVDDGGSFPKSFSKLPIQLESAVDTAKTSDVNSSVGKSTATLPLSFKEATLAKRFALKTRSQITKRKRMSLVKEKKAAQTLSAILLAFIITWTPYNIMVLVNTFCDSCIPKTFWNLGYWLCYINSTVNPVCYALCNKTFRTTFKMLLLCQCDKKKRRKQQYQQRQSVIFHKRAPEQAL
Chain of dopaminergic D3 receptor (P35462 whole entry): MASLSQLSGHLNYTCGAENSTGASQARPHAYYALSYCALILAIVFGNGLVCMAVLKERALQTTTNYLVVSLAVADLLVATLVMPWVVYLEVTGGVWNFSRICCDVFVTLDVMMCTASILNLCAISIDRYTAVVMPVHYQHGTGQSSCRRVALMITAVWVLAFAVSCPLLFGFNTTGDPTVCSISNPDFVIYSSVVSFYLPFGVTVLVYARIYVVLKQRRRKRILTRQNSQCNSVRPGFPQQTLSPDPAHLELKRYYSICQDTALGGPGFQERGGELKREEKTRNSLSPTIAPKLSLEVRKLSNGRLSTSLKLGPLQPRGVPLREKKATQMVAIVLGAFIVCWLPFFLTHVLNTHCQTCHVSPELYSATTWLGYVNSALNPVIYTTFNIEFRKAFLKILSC
Chain of serotoninergic 5-HT6 receptor (P50406 whole entry): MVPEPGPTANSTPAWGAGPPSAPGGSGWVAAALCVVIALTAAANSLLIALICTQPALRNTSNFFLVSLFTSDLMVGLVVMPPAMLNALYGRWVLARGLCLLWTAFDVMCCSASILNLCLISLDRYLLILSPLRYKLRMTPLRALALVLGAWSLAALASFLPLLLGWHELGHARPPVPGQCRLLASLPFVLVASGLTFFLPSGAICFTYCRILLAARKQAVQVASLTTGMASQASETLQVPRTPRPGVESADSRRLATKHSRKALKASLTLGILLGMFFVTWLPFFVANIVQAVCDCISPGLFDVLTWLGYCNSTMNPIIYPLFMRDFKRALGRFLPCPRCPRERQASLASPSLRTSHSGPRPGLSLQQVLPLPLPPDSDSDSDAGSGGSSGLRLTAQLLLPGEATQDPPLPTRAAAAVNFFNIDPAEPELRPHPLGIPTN
Chain of serotoninergic 5-HT7 receptor (P34969 whole entry): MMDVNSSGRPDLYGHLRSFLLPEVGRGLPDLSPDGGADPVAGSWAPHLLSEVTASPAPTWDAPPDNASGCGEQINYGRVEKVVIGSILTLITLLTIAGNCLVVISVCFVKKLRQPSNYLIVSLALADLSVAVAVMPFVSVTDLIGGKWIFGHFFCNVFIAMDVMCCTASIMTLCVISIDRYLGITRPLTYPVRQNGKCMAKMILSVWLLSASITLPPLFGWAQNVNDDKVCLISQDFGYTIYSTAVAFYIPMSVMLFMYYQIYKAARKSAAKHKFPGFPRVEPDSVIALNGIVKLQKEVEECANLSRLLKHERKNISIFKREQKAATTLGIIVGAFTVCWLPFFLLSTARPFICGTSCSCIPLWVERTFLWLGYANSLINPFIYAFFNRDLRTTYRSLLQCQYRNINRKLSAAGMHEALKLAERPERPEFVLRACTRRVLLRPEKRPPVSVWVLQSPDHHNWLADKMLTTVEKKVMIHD

On to `O=S(=O)(NCCCCN1CCN(c2cccc3[nH]ccc23)CC1)c1cccc(Cl)c1` [Compound 113, N-[4-[4-(1H-Indol-4-yl)piperazin-1-yl]butyl]-3-chlorobenzenesulphonamide], for which the activation at 1 µM was 13% on adrenergic α2C receptor [1]; 9% in test [2] (setting [9]); 1% at adrenergic α1A receptor; 39% at dopaminergic D3 receptor; 42% on dopaminergic D2 receptor [7]. For the same compound, the inhibition at 1 µM on adrenergic α2C receptor [1] stood at 53%; at muscarinic M3 receptor it was 29%; in [2], 45%; at adrenergic α1A receptor, 100%; in test [3], 69%; at adrenergic α2C receptor [4], 99%. The inhibition at 1 µM on dopaminergic D2 receptor [5] was 98%; in test [6], 28%; at dopaminergic D3 receptor, 30%; at dopaminergic D2 receptor [7], 94%.
In the case of `O=c1[nH]c2cccc(N3CCN(CCCNS(=O)(=O)c4ccc5ccccc5c4)CC3)c2[nH]1` [Compound 424, N-[3-[4-(2-oxo-1,3-dihydrobenzimidazol-4-yl)piperazin-1-yl]propyl]naphthalene-2-sulphonamide], the inhibition at 1 µM stood at 7% on muscarinic M3 receptor; 43% in test [2]; 76% at adrenergic α1A receptor; 66% in test [3]; 67% on adrenergic α2C receptor [4]; 97% at dopaminergic D2 receptor [5]. The values for the inhibition at 1 µM (in [6]; on dopaminergic D3 receptor; at dopaminergic D2 receptor [7]) were -3%, 18% and 97%, respectively. Moreover, the activation at 1 µM was determined as 18% in [2] (setting [9]), 39% on adrenergic α1A receptor, 70% on dopaminergic D3 receptor and 44% at dopaminergic D2 receptor [7].
Consider `Cc1cccc(S(=O)(=O)NCCCCN2CCN(c3nsc4ccccc34)CC2)c1` [Compound 3, N-(4-(4-(1,2-Benzothiazol-3-yl)piperazin-1-yl)butyl)-3-methylbenzenesulphonamide], for which the inhibition at 1 µM in test [8] was 22%; on muscarinic M3 receptor it was 13%; in test [2], 93%; in test [3], 100%; at adrenergic α2C receptor [4], 99%; at dopaminergic D2 receptor [5], 96%. In addition, the inhibition at 1 µM in test [6] stood at 57%. For the same compound, the activation at 1 µM in test [2] is -2%.
For `O=S(=O)(NCCCCN1CCN(c2cccc3[nH]ccc23)CC1)c1cccc(F)c1` [Compound 28, 3-Fluoro-N-{4-[4-(1H-indol-4-yl)piperazin-1-yl]butyl}benzenesulphonamide], the activation at 1 µM amounted to 4% at adrenergic α2C receptor [1]; 0% in [8] (agonist effect, percent of control specific agonist response, compounds tested at 1×10^−6M, read-out: 5-HT6-ag [%]); 4% in test [2] (setting [9]); 59% on dopaminergic D3 receptor; 49% on dopaminergic D2 receptor [7]. Moreover, the inhibition at 1 µM at adrenergic α2C receptor [1] stood at 27%; in test [8], 53%; on muscarinic M3 receptor it was 50%; in test [2], 23%; in [3] it was 89%; on adrenergic α2C receptor [4], 92%. Moreover, the inhibition at 1 µM is 98% at dopaminergic D2 receptor [5], 53% in [6], -2% at dopaminergic D3 receptor and 105% on dopaminergic D2 receptor [7].
In the case of `O=c1[nH]c2cccc(N3CCN(CCCNS(=O)(=O)c4cccc5ccccc45)CC3)c2[nH]1` [Compound 423, N-[3-[4-(2-oxo-1,3-dihydrobenzimidazol-4-yl)piperazin-1-yl]propyl]naphthalene-1-sulphonamide], the inhibition at 1 µM is -1% on muscarinic M3 receptor; 70% on adrenergic α1A receptor; 30% in [3]; 69% on adrenergic α2C receptor [4]; 97% on dopaminergic D2 receptor [5]; 25% in test [6]. Also, the figures for the inhibition at 1 µM on dopaminergic D3 receptor and at dopaminergic D2 receptor [7] were 22% and 96%, respectively. Further, the figures for the activation at 1 µM at adrenergic α1A receptor, at dopaminergic D3 receptor and at dopaminergic D2 receptor [7] were 16%, 70% and 41%, respectively.
Regarding `O=S(=O)(NCCCCN1CCN(c2cccc3[nH]ccc23)CC1)c1ccc(F)cc1` [Compound 359, 4-Fluoro-N-[4-[4-(1H-indol-4-yl)piperazin-1-yl]butyl]benzenesulphonamide], the activation at 1 µM at adrenergic α2C receptor [1] was 13%; in test [2] (setting [9]) it was 8%; on adrenergic α1A receptor it was 1%; on dopaminergic D3 receptor it was 25%; on dopaminergic D2 receptor [7] it was 39%. For the same compound, the inhibition at 1 µM at adrenergic α2C receptor [1] amounted to 38%; at muscarinic M3 receptor it was 63%; in test [2], 43%; on adrenergic α1A receptor, 100%; in test [3], 79%; on adrenergic α2C receptor [4], 99%. Moreover, the inhibition at 1 µM at dopaminergic D2 receptor [5] was 96%; in [6] it was 33%; on dopaminergic D3 receptor, 79%; at dopaminergic D2 receptor [7] it was 96%.
As to `O=S(=O)(NCCCCN1CCN(c2cccc3[nH]ccc23)CC1)c1ccccc1` [Compound 27, N-{4-[4-(1H-Indol-4-yl)piperazin-1-yl]butyl}benzenesulphonamide], the activation at 1 µM at adrenergic α2C receptor [1] came to 3%; in test [2] (setting [9]), 5%; at adrenergic α1A receptor, 1%; on dopaminergic D2 receptor [7], 40%. The inhibition at 1 µM is 31% on adrenergic α2C receptor [1]; 46% at muscarinic M3 receptor; 8% in test [2]; 100% at adrenergic α1A receptor; 62% in test [3]; 100% at adrenergic α2C receptor [4]. Moreover, the inhibition at 1 µM on dopaminergic D2 receptor [5] was 90%; in test [6], -3%; on dopaminergic D2 receptor [7] it was 100%.
